In brackets after ≈: the same amount, converted by molar mass. Like-named read-outs stand apart in the source and are kept apart here.
Experiments:
C. innocuum = assay: microbe, parasite or virus in culture; type: cell-based; conditions: [Clostridium] innocuum; clinical isolates, n=9
C. bolteae = assay: microbe, parasite or virus in culture; type: cell-based; conditions: Enterocloster bolteae; clinical isolates, n=6
toxigenic C. difficile = assay: Hamster model of clindamycin-induced Clostridium difficile associated diarrhea/colitis; type: in vivo, Syrian hamsters
Experimental: Animals were treated with two oral doses of clindamycin at 100 mg/kg. Three days after the second dose of clindamycin, they were inoculated with toxigenic C. difficile spores. […] Animals were observed daily for the presence or absence of diarrhea. Necropsies were performed on some animals that died during the experiment, and cecal contents were assayed for C. difficile toxin A. Hamsters were monitored for 20 days, and the cumulative mortality during this period was recorded (FIG. 1).

[1] = system: Non-spore forming Gram positive rods; assay: organism not typed; type: cell-based; conditions: clinical gastrointestinal isolates, n=64
Proteus mirabilis = assay: microbe, parasite or virus in culture; type: cell-based; conditions: clinical gastrointestinal isolates, n=10
Clostridium difficile = assay: MIC, 207 clinical isolates of C. difficile; type: cell-based
Source text: Compound I was additionally tested against anaerobic clinical isolates and against aerobic bacteria. […] The compound was also active against clinical strains of Staphylococcus sp. and Enterococcus sp.

C. clostridioforme = assay: organism not typed; type: cell-based; conditions: clinical isolates, n=5
[2] = system: Anaerobic Gram positive cocci; assay: organism not typed; type: cell-based; conditions: clinical gastrointestinal isolates, n=49
Enterobacter sp. = assay: microbe, parasite or virus in culture; type: cell-based; conditions: clinical gastrointestinal isolates, n=20
Enterococcus sp. = assay: microbe, parasite or virus in culture; type: cell-based; conditions: clinical gastrointestinal isolates, n=22
C. sordellii = assay: microbe, parasite or virus in culture; type: cell-based; conditions: clinical isolates, n=5
[3] = system: Streptococcus milleri group; assay: microbe, parasite or virus in culture; type: cell-based; conditions: clinical gastrointestinal isolates, n=14

CCc1c(Cl)c(O)c(Cl)c(O)c1C(=O)O[C@H]1[C@H](O)[C@H](OC)[C@H](OC/C2=C\C=C\C[C@H](O)/C(C)=C/[C@H](CC)C(O[C@@H]3OC(C)(C)[C@@H](OC(=O)C(C)C)[C@H](O)[C@@H]3O)/C(C)=C/C(C)=C/C[C@@H](C(C)O)OC2=O)O[C@@H]1C (some centres unmarked) [Compound I] was tested, and the MIC50 (C. innocuum) was greater than 1020 µg/mL, the MIC90 (C. innocuum) was greater than 1020 µg/mL and the MIC50 (C. bolteae) was greater than 1020 µg/mL. For the same compound, the MIC90 (C. bolteae) was greater than 1020 µg/mL, the ED50 (toxigenic C. difficile; Clostridioides difficile, oral, 7 days, started 8 hours after infection, hamsters monitored 20 days) was less than 0.3 mg/kg and the “protection from infection (cumulative mortality over 20 days)” value (toxigenic C. difficile; oral treatment for 7 days, untreated infection uniformly fatal between days two and six) was “protected the animals from infection”. It also gave an MIC50 [1] of 1 µg/mL (≈ 0.945 µM), an MIC90 [1] of 32 µg/mL (≈ 30.2 µM) and an MIC50 (Proteus mirabilis; Proteus mirabilis) greater than 256 µg/mL. The MIC90 (Proteus mirabilis; Proteus mirabilis) was greater than 256 µg/mL, the “Range (MIC)” value (Proteus mirabilis) was greater than 256 µg/mL and the MIC90 (Clostridium difficile; Clostridioides difficile, clinical isolates, n=207) was 0.008 µg/mL (≈ 0.00756 µM). For the same compound, the MIC50 (Clostridium difficile; Clostridioides difficile, clinical isolates, n=207, read-out: MIC50) was 0.0019 µg/mL (≈ 0.0018 µM), the MIC50 (Clostridium difficile; clinical isolates, n=207) was 0.002 µg/mL (≈ 0.00189 µM) and the “sensitivity of isolates (in words)” value (Clostridium difficile; panel of 207 C. difficile clinical isolates) was “very sensitive”. The MIC50 (C. clostridioforme) was 4 µg/mL (≈ 3.78 µM), the MIC90 (C. clostridioforme) was greater than 1020 µg/mL and the MIC50 [2] was 0.5 µg/mL (≈ 0.473 µM). The MIC90 [2] was 2 µg/mL (≈ 1.89 µM), the “Range (MIC)” value [2] was 0.06 to 1024 µg/mL and the MIC50 (Enterobacter sp.; Enterobacter) was greater than 256 µg/mL. For the same compound, the MIC90 (Enterobacter sp.; Enterobacter) was greater than 256 µg/mL, the “Range (MIC)” value (Enterobacter sp.) was greater than 256 µg/mL and the MIC50 (Enterococcus sp.; Enterococcus) was 8 µg/mL (≈ 7.56 µM). The MIC90 (Enterococcus sp.; Enterococcus) was 8 µg/mL (≈ 7.56 µM), the “Range (MIC)” value (Enterococcus sp.) was 0.5-16^ μg/mL and the MIC50 (C. sordellii; Paraclostridium sordellii) was 0.062 µg/mL (≈ 0.0586 µM). For the same compound, the MIC90 (C. sordellii; Paraclostridium sordellii) was 0.062 µg/mL (≈ 0.0586 µM), the “Range (MIC)” value (C. sordellii) was 0.062 µg/mL and the MIC50 ([3]; Streptococcus milleri) was 32 µg/mL (≈ 30.2 µM). The MIC90 ([3]; Streptococcus milleri) was 32 µg/mL (≈ 30.2 µM) and the “Range (MIC)” value [3] was 16 to 64 µg/mL.

From patent US20070173462A1, “Treatment of diseases associated with the use of antibiotics” (Optimer Pharmaceuticals, Inc., priority 2004, published 2007)
